# Laboratory results taken from article PMC3001897, “High-Throughput Chemical Screen Identifies a Novel Potent Modulator of Cellular Circadian Rhythms and Reveals CKIα as a Clock Regulatory Kinase” (PLoS Biology, 2010).
# Values joined by “and” are separate entries in the source; they are usually repeats but may differ in a detail not shown here. Identical values can stand only once.
# How the values were obtained:
# [1] = tested on: Bmal1-dLuc U2OS cells; test: U2OS cell-based circadian assay (Bmal1-dLuc luminescence rhythms); design: species or system human
# Method: The compound screen was done with the high-throughput circadian assay system as described previously. In brief, Bmal1-dLuc U2OS cells were suspended in the culture medium (DMEM supplemented with 10% fetal bovine serum, 0.29 mg/ml L-glutamine, 100 units/ml penicillin, and 100 µg/ml streptomycin) and plated onto 384-well white solid-bottom plates at 20 µl (2,000 cells) per well. After 2 d, 50 µl of the explant medium (DMEM supplemented with 2% B27, 10 mM HEPES, 0.38 mg/ml sodium bicarbonate, 0.29 mg/ml L-glutamine, 100 units/ml penicillin, 100 µg/ml streptomycin, 0.1 mg/ml gentamicin, and 1 mM luciferin, pH 7.2) was dispensed to each well, followed by the application of 500 nl of compounds (dissolved in DMSO; final 0.7% DMSO). The plate was covered with an optically clear film and set to luminescence monitoring system equipped with a CCD imager (ViewLux, Perkin Elmer). The luminescence was recorded every 2 h for 3–4 days. In follow-up studies, the luminescence was recorded every 100 min by using a microplate reader (Infinite M200, Tecan). The period parameter was obtained from the luminescence rhythm by curve fitting program CellulaRhythm or MultiCycle (Actimetrics), both of which gave similar results.
# [2] = tested on: adult tail fibroblasts; test: Circadian period in adult tail fibroblasts from mPer2Luc knockin mice; type: cell-based, mouse
# Method: Luminescence rhythms of adult tail fibroblasts and embryonic fibroblasts from mPer2^Luc knockin mice were analyzed similarly to U2OS cells, except that 1,800 cells were plated per well. Because of the low luminescence intensity of the fibroblasts, the higher sensitivity ViewLux imager was used for rhythm recording.
# [3] = tested on: SCN explants; test: Circadian period in SCN explants from mPer2Luc knockin mice; type: cell-based, mouse; details: 0 to 9 µM
# Method: Explants of lung and SCN were dissected from mPer2^Luc knockin mice and cultured in explant medium as described previously. The medium was changed every week with increasing concentration of longdaysin each time (from 0 to 9 µM, final 0.7% DMSO). The luminescence was recorded every 10 min with LumiCycle luminometer (Actimetrics), and the period parameter was obtained by using LumiCycle Analysis software (Actimetrics).
# [4] = molecular target: p38α (Homo sapiens, UniProt Q16539); test: In vitro kinase assay, p38α (unpublished data); type: biochemical
# [5] = molecular target: CKIα (Homo sapiens, UniProt P48729); test: Cell-based PER1 degradation assay (PER1-LUC), CKIα
# Method: HEK293T cells (6.0×10^4 cells) were reverse transfected on 96-well white solid-bottom plates by Lipofectamine 2000 with 40 ng each of expression vectors for C-terminally luciferase-fused PER1 (in p3XFLAG-CMV-14) and N-terminally HA-tagged kinase (in p3XFLAG-CMV-14). For luciferase (in p3XFLAG-CMV-14), 2 ng of expression vector with 38 ng of empty vector was used because of its efficient expression. After 48 h, the medium was supplemented with luciferin (final 1 mM) and HEPES-NaOH (pH 7.2; final 10 mM). After 1 h, cycloheximide (final 20 µg/ml) was added to the medium, and the plate was covered with optically clear film. The luminescence was recorded every 10 min by using the Tecan luminometer. Half-life was obtained by using Prism software (GraphPad Software).
# [6] = molecular target: T1, ERK2 (Homo sapiens, UniProt P28482); test: In vitro kinase assay, ERK2; type: biochemical
# T1 construct: purchased Millipore 14-550
# Method: The CKIδ, CKIα, CDK7, and ERK2 kinase assays were performed on 384-well plates (10 µl volume). The reaction mixture was as follows: for CKIδ, 2 ng/µl CKIδ (Millipore, 14-520), 50 µM peptide substrate RKKKAEpSVASLTSQCSYSS corresponding to human PER2 Lys659-Ser674 [47], and CKI buffer (40 mM Tris, 10 mM MgCl2, 0.5 mM DTT, 0.1 mg/ml BSA, pH 7.5); for CKIα, 1 ng/µl CKIα (Invitrogen, PV3850), 50 µM CKI peptide substrate (Anaspec, 60547-1), and CKI buffer; for CDK7, 5 ng/µl CDK7 (Millipore, 14-476), 100 µM Cdk7/9 peptide substrate (Millipore, 12-526), and CKI buffer; for ERK2, 1.5 ng/µl ERK2 (Millipore, 14-550), 0.8 µg/µl MBP (Millipore, 13-104), and ERK buffer (50 mM Tris, 10 mM MgCl2, 0.5 mM DTT, 1 mM EGTA, pH 7.5). Five hundred nl of compound was added to the mixture (final 5% DMSO), and the reaction was started by adding ATP (final 5 µM). After incubation at 30°C for 3h, 10 µl of Kinase-Glo Luminescent Kinase Assay reagent (Promega) was added, and the luminescence was detected to determine remaining ATP amount. […] IC50 value was obtained by using Prism software (GraphPad Software).
# [7] = Bmal1-dLuc U2OS cells, from Figure 1B
# T1 sequence (P28482 whole entry, species assumed): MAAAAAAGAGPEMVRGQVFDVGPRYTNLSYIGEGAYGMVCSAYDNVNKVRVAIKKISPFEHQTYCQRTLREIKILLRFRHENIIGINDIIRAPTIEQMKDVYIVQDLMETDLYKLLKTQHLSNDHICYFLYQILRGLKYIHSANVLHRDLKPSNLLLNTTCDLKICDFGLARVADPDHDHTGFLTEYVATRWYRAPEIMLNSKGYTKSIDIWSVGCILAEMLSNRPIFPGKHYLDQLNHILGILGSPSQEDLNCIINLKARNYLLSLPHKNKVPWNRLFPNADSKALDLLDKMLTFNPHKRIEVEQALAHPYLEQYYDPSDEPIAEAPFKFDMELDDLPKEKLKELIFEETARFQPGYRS
# CKIα, sequence (P48729 whole entry, the tested form may be a part): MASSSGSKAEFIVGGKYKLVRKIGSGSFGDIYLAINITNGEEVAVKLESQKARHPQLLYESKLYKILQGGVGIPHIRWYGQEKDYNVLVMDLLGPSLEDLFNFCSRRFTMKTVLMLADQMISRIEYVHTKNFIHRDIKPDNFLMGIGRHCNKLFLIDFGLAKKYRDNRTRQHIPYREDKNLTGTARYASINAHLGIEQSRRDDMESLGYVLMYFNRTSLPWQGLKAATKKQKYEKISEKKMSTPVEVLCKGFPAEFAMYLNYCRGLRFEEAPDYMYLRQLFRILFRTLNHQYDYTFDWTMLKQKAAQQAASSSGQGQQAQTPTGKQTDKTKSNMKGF
# p38α, sequence (Q16539 whole entry): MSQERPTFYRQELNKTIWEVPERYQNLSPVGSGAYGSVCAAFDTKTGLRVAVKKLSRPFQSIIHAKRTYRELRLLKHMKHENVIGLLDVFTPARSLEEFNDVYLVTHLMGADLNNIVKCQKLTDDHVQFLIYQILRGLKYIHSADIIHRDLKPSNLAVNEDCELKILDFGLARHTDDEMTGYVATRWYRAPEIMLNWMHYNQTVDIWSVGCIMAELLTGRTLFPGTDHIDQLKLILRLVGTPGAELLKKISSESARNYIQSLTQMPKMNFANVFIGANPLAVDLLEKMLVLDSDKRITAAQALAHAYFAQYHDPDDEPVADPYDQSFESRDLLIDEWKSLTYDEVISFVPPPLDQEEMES
smiles,measurement,setting,value
"CC(C)n1cnc2c(NCc3cccc(C(F)(F)F)c3)ncnc21 [Longdaysin, 9-isopropyl-N-(3-(trifluoromethyl)benzyl)-9H-purin-6-amine]",Period change (lengthening),"[1]; 10 µM, U2OS cells",> 10 h and 13 h
same,"Concentration for period change, 5 h",[1]; [7],1.5 µM
same,"Concentration for period change, 10 h",[1]; [7],5.7 µM
same,"Concentration for period change, 15 h",[1]; [7],13 µM
same,Potency relative to compound 1 (times more potent),[1]; period lengthening,3 times
same,Reversibility of period effect after washout,"[1]; washout, U2OS cells, mouse fibroblasts, lung (Figure S2)",reversible
same,Effect on circadian period,[2],dose-dependent period lengthening
same,Effect on circadian period,[3],dose-dependent period lengthening
same,Effect on p38α activity,[4],much less effect
same,EC50,"[5]; HEK293T cells, 24 h treatment, from Figure 4E",9.2 µM
same,Effect on CKIα-dependent degradation of PER1,"[5]; HEK293T, 0 to 20 µM, 24 h",inhibited by longdaysin treatment in a dose-dependent manner
same,IC50,"[6]; ATP 5 µM, from Figure 2E",52 µM
same,Inhibition of ERK2 in vitro,[6]; range of 3 to 24 µM,considerably inhibited ERK2 in vitro
